Values after ≈ are worked out from the molar mass of the structure shown. Where two headings read alike, the source gives them in different places.
Experiments:
[1] = test system: fluconazole-susceptible C. albicans strain 90028; details: cited from earlier work
[2] = test system: fluconazole-resistant C. albicans strain Gu5; details: cited from earlier work
C. albicans CaCi-2 = assay: Secondary single-agent (no-fluconazole) activity assay; assay type: cell-based, Candida albicans; details: Candida albicans, CACI2; in the absence of fluconazole; read-out: Target Potency (μM) Mean ± S.E.M CaCi-2^b IC50
Method in brief: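 C. albicans CaCi-2 in RPMI synthetic defined medium with 1% Pen/Strep, starting OD600 0.00015, exposed to compound alone (no fluconazole) for 48 h at 37 °C without agitation. Growth read as Alamar Blue fluorescence (1:200 final) after 2 h at room temperature.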

PBS solubility = details: for solubility: aqueous buffer
Plasma stability = details: % remaining in human plasma after a 5-hour incubation
[3] = test system: NIH-3T3 mammalian fibroblasts; assay: Counterscreen mammalian cell toxicity assay (fibroblast toxicity); assay type: cell-based, murine; details: for IC50: footnote: in the absence of fluconazole, read-out: Anti-target Potency (μM) Mean ± S.E.M Fibroblasts^b IC50
C. albicans CaCi-8 = assay: microbe, parasite or virus in culture; assay type: cell-based, Candida albicans
Method in brief: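 Hits tested for chemosensitization of the fluconazole-resistant CaCi-8 strain, for inherent antifungal activity without fluconazole, and for mammalian fibroblast toxicity by fluorescence reporter. Geldanamycin plus fluconazole served as positive control; a Saccharomyces assay assigned mechanism to Hsp90, calcineurin or other pathways.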

Plasma protein binding = details: for fraction unbound: human, plasma
[4] = test system: Saccharomyces cerevisiae strain W303-1a; assay: In vivo inhibition of fungal respiration (growth on glycerol); assay type: cell-based; details: glycerol medium, 48 hours
Protocol: Saccharomyces cerevisiae (S. cerevisiae) strain W303-1a was grown overnight in Yeast-Peptone-Dextrose media, washed, and diluted into Yeast Nitrogen Base media with 2.5% glycerol containing compounds at a range of dilutions.

Aspergillus terreus = Aspergillus terreus susceptibility test (CLSI M38-A2); assay type: cell-based
Protocol: Aspergillus terreus (A. terreus) susceptibility testing was performed as described in Clinical Laboratory Standards Institute document […]-A2 (CLSI […]-A2) (CLSI. Reference Method for Broth Dilution Antifungal Susceptibility Testing of Filamentous Fungi; Approved Standard-Second Edition. CLSI, 940 West Valley Road, Suite 1400, Wayne, Pa. 19087-1898 USA, 2003).

yeast = target: T1, yeast (Saccharomyces cerevisiae, UniProt P00163); assay: IC50 values and selectivity of Table 10A (target yeast, anti-target human cytochrome); assay type: biochemical; details: for IC50: target is yeast; for Selectivity* (anti-target IC50)/(target IC50): target yeast, anti-target human cytochrome
T1 construct: Mitochondrial membranes were prepared from yeast; endogenous in cells; host or cells: yeast (mitochondrial membranes)
Protocol: (§1) All measurements were performed in triplicate.

[5] = as above; assay type: biochemical
Protocol: as §1

[6] = test system: Candida albicans wild-type; assay: De novo emergence of fluconazole resistance (colonies after six days); assay type: cell-based; details: I-97 0.5 μM combined with fluconazole 32 mg/L
Protocol: Candida albicans wild-type (WT, FIG. 13, top panel) or rip1/rip1 homozygous deletion mutant (rip1 Δ/Δ, FIG. 13, middle panel) were plated on media in the presence of fluconazole (32 mg/L) or in the absence of fluconazole. The emergence of colonies was monitored after six days.

[7] = test system: Candida albicans strain CaCi-2; assay: Cytotoxicity to fluconazole-resistant strain CaCi-2; assay type: cell-based; details: combination with fluconazole
[8] = test system: Candida albicans strain SC5314; assay: Cytotoxicity to fluconazole-sensitive strain SC5314; assay type: cell-based; details: combination with fluconazole
fungus = details: cited from earlier work
[9] = read-out: Target Potency (μM) Mean ± S.E.M CaCi-8^a IC50; in the presence of fluconazole

| Compound | IC50 (C. albicans CaCi-2) [µM] | solubility (PBS solubility; PBS) [µM] | Plasma Stability (Plasma stability) [%] | IC50 ([3]; Mus musculus, NIH3T3) [µM] | IC50 (C. albicans CaCi-8; [9]) [µM] | fraction unbound (Plasma protein binding) | Selectivity* (anti-target IC50)/(target IC50) (yeast) | IC50 [5] [nM] | also measured |
| --- | --- | --- | --- | --- | --- | --- | --- | --- | --- |
| Clc1ccc2c(c1)nnc1nnnn12 [CTBT, 7-chlorotetrazolo[5,1-c]benzo[1,2,4]triazine] |  |  |  |  |  |  |  |  | Activity in the absence of fluconazole [1]: no activity; MIC when combined with fluconazole [1]: 2.4 µM; Concentrations inhibiting growth in the absence of fluconazole [2]: greater than 2.4 μM; MIC when combined with fluconazole [2]: 2.4 µM |
| O=C(O)c1nn(Cc2ccc(Cl)cc2)c2ccccc12 [Compound 100493] | > 26 | 516 (≈ 148 µg/mL) | > 99 | > 6 | > 26 | < 0.01 |  |  |  |
| COC(=O)Cn1c(-c2ccccc2)nc2ccccc21 [Compound 4131200] | > 26 | 438 (≈ 117 µg/mL) | 46 | > 6 | > 26 | 0.05 |  |  |  |
| COc1ccc(-c2n[nH]c3ccccc23)cc1 [Compound 9855970] | > 26 | < 1 | 89 | > 6 | > 26 | 0.02 |  |  |  |
| CCOC(=O)c1nn(Cc2ccc(Cl)cc2)c2ccccc12 [Compound 12312246] | > 26 |  | 93 | > 6 | > 26 | < 0.01 |  |  | solubility (PBS solubility): < 0.1 µM |
| O=C(O)c1c2ccccc2nn1Cc1ccc(Cl)cc1 [Compound 14420592] | > 26 | 503 (≈ 144 µg/mL) | 96 | > 6 | > 26 | < 0.01 |  |  |  |
| CCCNC(=O)Cn1nc(-c2ccccc2)c2cc(Cl)ccc21 [Compound 20877322] | > 26 | < 1 | 97 | > 6 | > 26 | < 0.01 |  |  |  |
| O=C(Cn1nc(-c2ccccc2)c2cc(Cl)ccc21)N1CCOCC1 [Compound 20877381] | > 26 | 8 (≈ 2.85 µg/mL) | 99 | > 6 | > 26 | 0.04 |  |  |  |
| O=C(Cn1nc(C(=O)N2CCCCC2)c2ccccc21)N1CCOCC1 [Compound 46378661] | > 26 | 529 (≈ 189 µg/mL) | > 99 | > 6 | > 26 | 0.48 |  |  |  |
| Cc1nn(S(C)(=O)=O)c2ccccc12 [Compound 46856251] | > 26 | 494 (≈ 104 µg/mL) | > 99 | > 6 | > 26 | 0.37 |  |  |  |
| CCOC(=O)c1c2ccccc2nn1Cc1ccc(Cl)cc1 [Compound 46856252] | > 26 | < 1 | 70 | > 6 | > 26 | < 0.01 |  |  |  |
| FC(F)(F)c1ccc(-c2n[nH]c3ccccc23)cc1 [Compound 49635869] | > 26 | < 1 | 79 | > 6 | > 26 | < 0.01 |  |  |  |
| COC(=O)Cn1nc(I)c2ccccc21 [Compound 49835832] |  |  | 1.3 |  |  |  |  |  | PBS Solubility (PBS solubility; PBS): 143.5 µM; IC50 [3]: 0.53 µM; IC50 (C. albicans CaCi-8; in the presence of fluconazole; read-out: Target Potency (μM) Mean ± S.E.M CaCi-8^a IC50): 18.8 µM; Plasma Protein Binding (Plasma protein binding; % bound in human plasma): 98% |
| COC(=O)Cn1nc(-c2ccccc2)c2cccc(C(F)(F)F)c21 [Compound 49835842] | > 26 | < 1 | 50 | > 6 | > 26 | < 0.01 |  |  |  |
| COC(=O)Cn1nc(-c2cccc(OCc3ccccc3)c2)c2ccccc21 [Compound I-7] |  |  |  |  |  |  |  |  | Inhibitory activity against S. cerevisiae (respiratory growth) [4]: shows inhibitory activity; Inhibitory activity against A. terreus (Aspergillus terreus): shows inhibitory activity |
| COC(=O)Cn1nc(-c2cccc(F)c2)c2ccccc21 [Compound I-71] | > 26 | < 1 | < 1.0 | 12.9 |  | 0.04 | 80 |  | IC50 (yeast): 250 nM; ** CaCi-2 to anti-target fold selectivity ([3]; fibroblast IC50 over CaCi-2 IC50 with fluconazole): 9.1 |
| c1ccc(-c2nn(Cc3nnco3)c3ccccc23)cc1 [Compound I-74] |  |  |  |  |  |  | 53 | 3000 |  |
| CNC(=O)Cn1nc(-c2ccccc2)c2ccccc21 [Compound I-75] |  |  |  |  |  |  |  | > 80000 |  |
| COC(=O)Cn1nc(-c2ccsc2)c2ccccc21 [Compound I-77] |  |  |  |  |  |  | 48 | 625 |  |

| Compound | IC50 (C. albicans CaCi-2) [µM] | solubility (PBS solubility; PBS) [µM] | Plasma Stability (Plasma stability) [%] | IC50 ([3]; Mus musculus, NIH3T3) [µM] | IC50 (C. albicans CaCi-8; [9]) [µM] | fraction unbound (Plasma protein binding) | Selectivity* (anti-target IC50)/(target IC50) (yeast) | IC50 [5] [nM] | also measured |
| --- | --- | --- | --- | --- | --- | --- | --- | --- | --- |
| COC(=O)Cn1nc(-c2cccc(OCCCC3CCCCC3)c2)c2ccccc21 [Compound I-78] |  |  |  |  |  |  | 100 | 10 |  |
| COC(=O)Cn1nc(-c2cccc(OCCC(C)(C)C)c2)c2ccccc21 [Compound I-79] |  |  |  |  |  |  | 50 | 40 |  |
| COC(=O)Cn1nc(-c2ccccc2)c2cccc(C)c21 [Compound I-82] |  |  |  |  |  |  | 40 | 125 |  |
| c1ccc(-c2nn(Cc3nn[nH]n3)c3ccccc23)cc1 [Compound I-87] |  |  |  |  |  |  |  | > 160000 |  |
| Cc1cc(Cn2nc(-c3ccccc3)c3ccccc32)on1 [Compound I-92] |  |  |  |  |  |  | >5 | 30000 |  |
| COC(=O)Cn1nc(-c2ccccc2)c2ccccc21 [Compound I-96] |  |  |  |  |  |  |  | 600 |  |
| COC(=O)Cn1nc(-c2cc(C(F)(F)F)ccc2F)c2cccc(C)c21 [Compound I-97] |  |  |  |  |  |  | 200 |  | Emergence of resistance to fluconazole [6]: prevented the emergence of the resistance to fluconazole; Effect on CaCi-2 [7]: cytotoxic; Effect on SC5314 [8]: cytotoxic; IC50 (yeast): 4 nM |
| Cc1cccc2c(-c3cc(C(F)(F)F)ccc3F)nn(Cc3nnn(C)n3)c12 [Compound I-99] |  |  |  |  |  |  | 160 | 23 |  |
| Cn1nnc(Cn2nc(-c3cc(OCCCC4CCCCC4)ccc3F)c3ccccc32)n1 [Compound I-102] |  |  |  |  |  |  | 16 | 46 |  |
| O=C(O)Cn1nc(-c2ccccc2)c2ccccc21 [Compound I-107] |  |  |  |  |  |  |  | > 120000 |  |
| Brc1cccnc1Cn1nc(-c2ccccc2)c2ccccc21 [Compound I-113] |  |  |  |  |  |  |  | > 120000 |  |
| c1ccc(-c2nn(Cc3cnccn3)c3ccccc23)cc1 [Compound I-115] |  |  |  |  |  |  | 128 | 630 |  |
| COC(=O)Cn1nc(-c2cccc(C#N)c2)c2ccccc21 [Compound I-118] |  |  |  |  |  |  | 96 | 1250 |  |
| COC(=O)Cn1nc(-c2cccc([N+](=O)[O-])c2)c2ccccc21 [Compound I-119] |  |  |  |  |  |  | 160 | 500 |  |
| COC(=O)Cn1nc(-c2ccccn2)c2ccccc21 [Compound I-120] |  |  |  |  |  |  |  | 15000 |  |
| COC(=O)Cn1nc(-c2cccc(OCc3ccccc3)c2F)c2ccccc21 [Compound I-134] |  |  |  |  |  |  | 20 | 200 |  |
| COC(=O)Cn1nc(-c2cc(OCc3ccccc3)ccc2F)c2ccccc21 [Compound I-136] |  |  |  |  |  |  | 8.3 | 60 |  |
| COC(=O)Cn1nc(-c2cccc(OCc3ccccc3)c2)c2ccccc21 [Compound I-140] |  |  |  |  |  |  | 8 | 400 |  |
| CCCCc1oc2ccccc2c1C(=O)c1cc(I)c(OCCN(CC)CC)c(I)c1 [amiodarone] |  |  |  |  |  |  |  |  | MIC50, single-agent antifungal activity (fungus): 3.1 µM (≈ 2 µg/mL) |
